Patent US20200061092A1, “METHODS AND COMPOSITIONS FOR TREATING DISORDERS ASSOCIATED WITH MUSCLE WEAKNESS” (priority 2018, published 2020)

Tests used:
[1] = tested on: muscular dystrophy caused by FKRP mutations; assay: Ribitol/ribose supplementation in animal model of FKRP mutation muscular dystrophy; assay type: in vivo; conditions: supplement via drinking water
C2C12 myotubes = assay: LC/MS-MS of isotopically labeled metabolites in differentiated C2C12 myotubes; assay type: cell-based, mouse; conditions: 5 mM, 5 days

Compound	Disease pathology of muscular dystrophy caused by FKRP mutations [1]	Levels of 13C-ribitol-5P and CDP-13C-ribitol in cells (C2C12 myotubes)
O=C[C@H](O)[C@H](O)[C@H](O)CO [ribose]	diminish disease pathology	–
^13C5-ribitol [^13C-ribitol]	–	clearly elevated levels
